Where only a bound is given, the exact number is not on record here.

A short description of the assay: Inhibition of Streptococcus mutans OMZ65 recombinant sortase A delta-40 mutant using Dabcyl-QALPETGEE-Edans as substrate after 1 hr by fluorescence spectrophotometry.
For `O=C(/C=C/c1ccc(O)c(O)c1)O[C@@H](Cc1ccc(O)c(O)c1)C(=O)O`, the IC50 (in general, the concentration that inhibits the measured activity by half) came out at 20.1 µM.

Regarding `O=C(/C=C/c1ccc(O)c(O)c1)O[C@H](C(=O)O)[C@@H](OC(=O)/C=C/c1ccc(O)c(O)c1)C(=O)O`, the IC50 was 60 µM. Then `COc1cc(C[C@H]2COC(=O)[C@@H]2Cc2ccc(O)c(OC)c2)ccc1O` [MATAIRESINOL], with greater than 100 µM; and `COc1cc(/C=C/C(=O)O)ccc1O` [FERULATE], with greater than 100 µM; and Para-Hydroxymercuribenzoic acid, with 35.1 µM. Then `COc1cc([C@H]2Oc3c(OC)cc(CCCO)cc3[C@H]2CO[C@@H]2O[C@H](CO)[C@@H](O)[C@H](O)[C@H]2O)ccc1O`, with 82.8 µM; and `O=C(O)/C=C/c1ccc(O)c(O)c1` [CAFFEIC ACID], with 20.2 µM. Then `COc1cc(C[C@@H]2COC(=O)[C@@]2(Cc2ccc(O)c(OC)c2)O[C@@H]2O[C@H](CO)[C@@H](O)[C@H](O)[C@H]2O)ccc1O`, with 41.2 µM; and `CO[C@@H](Cc1ccc(O)cc1)C(=O)O`, with greater than 100 µM; and `COc1cc([C@H]2Oc3c(OC)cc(CCCO)cc3[C@H]2CO)ccc1O`, with 35.9 µM.

Regarding `COc1cc([C@H]2Oc3c(OC)cc(CCCO[C@@H]4O[C@H](CO)[C@@H](O)[C@H](O)[C@H]4O)cc3[C@H]2CO)ccc1O`, the IC50 turned out to be 37.3 µM. With `COc1cc(C[C@@H]2COC(=O)[C@]2(O)Cc2ccc(O)c(OC)c2)ccc1O`, the IC50 was greater than 100 µM. Next, `COc1cc([C@@H]2OC[C@@H]3[C@H]2CO[C@H]3c2ccc(O)c(OC)c2)ccc1O` [(+)-PINORESINOL]: 67.7 µM.

(Values after ChEMBL document CHEMBL3098064, “Sortase A inhibitory metabolites from the roots of Pulsatilla koreana” (Bioorg Med Chem Lett, 2014).)
